Key:
[1] = Example 7: Compound 1 aqueous suspension SC PK study in monkey; type: in vivo, male cynomolgus monkeys; details: aqueous suspension (Form A), 10 mg/kg
Protocol: (§1) The LC-MS methodology and conditions used to analyse the helicase-primase inhibitor Compound 1 in plasma samples from the sub-cutaneous injection PK studies (Examples 7 and 10-12) are described in Table 3 and Table 4. An aqueous suspension of crystalline Compound 1 (Form A) was prepared in a 0.9% NaCl+0.5% polysorbate 80 vehicle at a concentration of 3.0 mg/mL as described in Example 3. The suspension was then dosed to male cyno monkeys at 10 mg/kg according to the Example 3 animal dosing method.

[2] = Example 7: Compound 1 aqueous suspension SC PK study in dog; type: in vivo, male non-naïve Beagle dogs; details: aqueous suspension (Form A), 10 mg/kg
Protocol: as §1, with “NaCl+0.5% poloxamer 188” for “NaCl+0.5% polysorbate 80”, “of 5.0” for “of 3.0”, “Example 4.” for “Example 3.”, “male non-naïve beagle dogs” for “male cyno monkeys”, “Example 4” for “Example 3”

[3] = Injection site observation in Example 7 Compound 1 PK studies; type: in vivo, rat, monkey, dog; details: SC Compound 1 depot formulations, Example 7, 3 species
Protocol: The suspension was then dosed to male SD rats at 10 mg/kg according to the Example 2 animal dosing method. The suspension was then dosed to male cyno monkeys at 10 mg/kg according to the Example 3 animal dosing method. The suspension was then dosed to male non-naïve beagle dogs at 10 mg/kg according to the Example 4 animal dosing method.

[4] = Example 10: Compound 1 (Form A) aqueous suspension SC PK study in rat; type: in vivo, male Sprague Dawley rats; details: 10 mg/kg
Protocol: An aqueous suspension of Compound 1 free form (crystalline Form A) in a 0.9% NaCl+0.5% polysorbate 80 vehicle at a concentration of 3 mg/mL was prepared as follows: • 1) Vehicle (0.9% w/w NaCl and 0.5% w/w polysorbate 80) was prepared by dissolving NaCl and polysorbate 80 in water. • 2) An appropriate amount of Compound 1 free form was weighed and added to the vehicle. • 3) The mixture was vortexed for 1 minute, stirred for 10 minutes and then sonicated for 15 minutes. • 4) The final dosing formulation was a homogenous white cloudy suspension.
Male Sprague Dawley (SD) rats with ~230-250 g body weight (ages 6-8 weeks) were used for the pharmacokinetic study. The animals had free access to food and water.
The Compound 1 suspension described above was administered via sub-cutaneous injection to each animal group (n=3) with a dosing volume of 3.33 mL/kg to achieve a 10 mg/kg dose.
At each time point, approximately 200 μL whole blood was collected in a K2EDTA tube via the jugular vein. Blood samples were put on ice and centrifuged at 2000 g for 5 min to obtain a plasma sample within 15 minutes. Plasma samples were stored at approximately −70° C. until analyzed by LC-MS.

[5] = Example 13: Compound 1 IV PK study in rat; type: in vivo, male Sprague Dawley rats; details: male, Sprague Dawley, plasma, 1 mg/kg, read-out: Rat t1/2 (converted)
Protocol: The LC-MS methodology and conditions used to analyse Compound 1 in plasma samples from the intra-venous injection PK studies (Example 13) are described in Tables 5 to 7. A 0.2 mg/mL solution of Compound 1 in 10% NMP, 10% Solutol HS15 and 80% Saline was prepared as follows: • 1) A stock solution of Compound 1 in NMP was prepared. • 2) An equal volume of the Compound 1 stock solution and Solutol HS15 were combined and mixed. • 3) The above solution was diluted with normal saline to reach the target concentration. The final formulation was a clear solution. Male Sprague Dawley (SD) rats with 230-250 g body weight, ages 6-8 weeks, were used for the rat pharmacokinetic study. The animals had free access to food and water. The Compound 1 solution described above was administered via intravenous injection to animals (n=3) to achieve a 1.0 mg/kg dose. At each time point, approximately 200 μL whole blood was collected in a K2EDTA tubes. Blood samples were put on ice and centrifuged at 2000 g for 5 min to obtain a plasma sample within 15 minutes. Plasma samples were stored at approximately −70° C. until analyzed by LC-MS according to the method described above.

[6] = Example 2: pritelivir aqueous suspension SC PK study in rat at lower dose; type: in vivo, male Sprague Dawley rats; details: aqueous suspension (dihydrate), 10 mg/kg
Protocol: The LC-MS methodology and conditions used to analyse pritelivir in plasma samples from the PK studies described in Examples 1 to 5 are provided in Table 1.
An aqueous suspension of crystalline pritelivir free base (dihydrate) in a 0.9% NaCl+0.5% polysorbate 80 vehicle at a concentration of 3.0 mg/mL was prepared as follows: • 1) Vehicle (0.9% w/w NaCl and 0.5% w/w polysorbate 80) was prepared by dissolving NaCl and polysorbate 80 in water. • 2) Appropriate amount of crystalline pritelivir free base (dihydrate) was weighed and added to the vehicle. • 3) Mixture was stirred for 15 minutes, then vortexed for 1 minute and then sonicated for 10 minutes. • 4) The final dosing formulation was a homogenous white cloudy suspension.
Male SD rats with 230-250 g body weight, ages 6-8 weeks were used for the rat PK study. The animals had free access to food and water. The prepared suspension was administered via subcutaneous injection to each animal group (n=3) with a dosing volume of 3.33 mL/kg to achieve a 10 mg/kg dose.
At each time point, approximately 200 μL whole blood was collected via the jugular vein into K2EDTA tubes. Blood samples were put on to ice and centrifuged at 2000 g for 5 min to obtain plasma sample within 15 minutes. Plasma samples were stored at approximately −70° C. until analyzed by LC-MS.

[7] = system: HSV-1; details: Field et al. (2013); read-out: in-vitro EC50 against HSV-1; cited from earlier work

| prolonged exposure out to (length of the study) [1] | prolonged exposure out to (length of the study) [2] | prolonged exposure out to [4] | variability in plasma concentrations [4] | half-life [5] | prolonged exposure out to (length of the study) [6] | Compound | adverse reactions at the injection sites [3] | EC50 [7] |
| --- | --- | --- | --- | --- | --- | --- | --- | --- |
| at least 1392 hours | at least 1392 hours | at least 58 days | low | 22 h | – | Cc1nc(N2CCCN(c3ccc(-c4cc(F)ccc4F)cc3)C2=O)sc1S(N)(=O)=O [Compound 1, 2-(3-(2′,5′-difluoro-[1,1′-biphenyl]-4-yl)-2-oxotetrahydropyrimidin-1(2H)-yl)-4-methylthiazole-5-sulfonamide] | no adverse reactions observed | – |
| – | – | – | – | – | at least 144 hours | Cc1nc(N(C)C(=O)Cc2ccc(-c3ccccn3)cc2)sc1S(N)(=O)=O [pritelivir, N-methyl-N-(4-methyl-5-sulfamoyl-1,3-thiazol-2-yl)-2-[4-(pyridin-2-yl)phenyl]acetamide] | – | 26 nM |

From patent publication US20260216057A1, “PHARMACEUTICAL COMPOSITIONS FOR HERPES VIRUS” (priority 2022, published 2026)
